Laboratory results as given in patent publication US12128034B2, “Combinations of beta-lactam compounds, probenecid, and valproic acid and uses thereof” (Iterum Therapeutics International Limited, priority 2020, dated 2024).
Values belong to the compound of their own block, whether it stands above or below them.

Experiments:
[1] = in vivo
clinical = details: in vivo; for AUC(0-t): AUC0-t; for AUC: AUC0-tau
Experimental: For Cohorts 2 and 3, all patients were administered valproic acid daily. Starting on the fifth day, Cohort 3 was administered the sulopenem etzadroxil tablet (“Etzadroxil Tablet”) alone and Cohort 2 was administered the bilayer tablet of sulopenem etzadroxil and probenecid (500 mg sulopenem etzadroxil+500 mg probenecid film-coated bilayer tablet; “Bilayer Tablet”).

[2] = may result in loss of seizure control; cited from earlier work
[3] = Dacey and Sande 1974; cited from earlier work
Porphyromonas gingivalis = details: Ednie and Appelbaum 2009; cited from earlier work

Structure (SMILES): C[C@@H](O)[C@H]1C(=O)N2C(C(=O)O)=C(S[C@@H]3CN[C@H](C(=O)Nc4cccc(C(=O)O)c4)C3)[C@H](C)[C@H]12 [ertapenem]
serum valproic acid concentration in patients receiving carbapenem antibiotics [2]: clinically significant reduction

Structure (SMILES): C[C@@H](O)[C@H]1C(=O)N2C(C(=O)O)=C(SCCN=CN)C[C@H]12 [imipenem]
serum valproic acid concentration in patients receiving carbapenem antibiotics [2]: clinically significant reduction

Structure (SMILES): C[C@@H](O)[C@H]1C(=O)N2C(C(=O)O)=C(S[C@@H]3CN[C@H](C(=O)N(C)C)C3)[C@H](C)[C@H]12 [meropenem]
serum valproic acid concentration in patients receiving carbapenem antibiotics [2]: clinically significant reduction

Continued, in another order:

tlast, Mean (SD) (clinical; male, human): 11.920 (0.0000) h
AUC0-t, Mean (SD) (clinical; male, human, po): 570.83 (122.096) h · μg/mL
AUC0-tau, Mean (SD) (clinical; male, human, po): 554.71 (140.804) h · μg/mL
Tmax (clinical; male, human, po): 4 h
tmax, Median (min, max) (clinical; male, human, po): 4.000 (2.00, 5.00) h
AUC(0-t) (clinical; male, human, po, GM (CV %)): 517 µg·h/mL
AUC(0-t) (clinical; male, human, po, Mean (SD)): 522 µg·h/mL
AUC (clinical; male, human, po, GM (CV %)): 518 µg·h/mL
AUC (clinical; male, human, po, Mean (SD)): 522 µg·h/mL
Structure (SMILES): CCCC(CCC)C(=O)O [VPA, valproic acid]
tolerability and safety [1]: well tolerated and safe

time at which the impact of probenecid on valproic acid bioavailability can occur (clinical; human): as early as three days
Structure (SMILES): CCCN(CCC)S(=O)(=O)c1ccc(C(=O)O)cc1 [probenecid]
concentrations of β-lactam compounds in the cerebrospinal fluid [3]: increase

effect on the steady-state pharmacokinetic profile of valproic acid (clinical): weak effect
Structure (SMILES): C[C@@H](O)[C@H]1C(=O)N2C(C(=O)O)=C(S[C@H]3CC[S@@+]([O-])C3)S[C@H]12 [sulopenem]
tolerability and safety [1]: well tolerated and safe
activity against Porphyromonas gingivalis (Porphyromonas gingivalis): active
